What was measured:
CDK12/CyclinK = CDK12/CyclinK (Homo sapiens (Human), UniProt Q9NYV4); test: CDK12/CycK high ATP kinase assay (TR-FRET); assay type: biochemical; conditions: for IC50: 2 mM ATP (high ATP), median, read-out: CDK12/CyclinK, 2 mM ATP (high ATP), IC50 - [mol/l] (median); for (IC50 CDK12 high ATP) to (Degradation DC50 CDK12) ratio: IC50 CDK12 at 2 mM ATP divided by CDK12 degradation DC50 (IF, CAL-120)
Protocol: In the context of the present invention, the term “IC50 CDK12 hATP” refers to the IC50 values obtained according to the assay described in this section (2.2) herein below, i.e. the IC50 values for the inhibition of CDK12 at high (2 mM) ATP.
CDK12/CycK-inhibitory activity of compounds of the present invention at 2 millimol/L adenosine-tri-phosphate (ATP) was quantified employing the TR-FRET (TR-FRET=Time Resolved Fluorescence Energy Transfer) based CDK12/CycK activity inhibition assay as described in the following paragraphs.
A complex of human recombinant CDK12 and human recombinant CycK (both N-terminally His-tagged, expression and purification as described above) was used as enzyme. As substrate for the kinase reaction biotinylated peptide biotin-Ahx-KFELLPTPPLSPSRRSGL (C-terminus in amid form) was used which can be purchased e.g. form the company Biosyntan (Berlin-Buch, Germany).
For the assay 50 nanoL of a 100 fold concentrated solution of the test compound in DMSO was pipetted into either a black low volume 384 well microtiter plate or a black 1536 well microtiter plate (both Greiner Bio-One, Frickenhausen, Germany), 2 microL of a solution of CDK12/CycK in aqueous assay buffer [25 millimol/L HEPES pH 7.5, 20 millimol/L MgCl2, 5 millimol/L β-glycerophosphate, 2 millimol/L EGTA, 1.0 millimol/L dithiothreitol, 0.01% (v/v) Nonidet-P40 (Sigma), 0.01% (w/v) bovine serum albumin] were added and the mixture was incubated for 15 min at 22° C. to allow pre-binding of the test compounds to the enzyme before the start of the kinase reaction. Then the kinase reaction was started by the addition of 3 microL of a solution ATP (3.33 millimol/L=>final conc. in the 5 microL assay volume is 2 millimol/L) and substrate (1.67 micromol/L=>final conc. in the 5 microL assay volume is 1 micromol/L) in assay buffer and the resulting mixture was incubated for a reaction time of 60 min at 22° C. The concentration of CDK12/CycK was adjusted depending of the activity of the enzyme lot and was chosen appropriate to have the assay in the linear range, typical concentrations were about 0.75 nanomol/L. The reaction was stopped by the addition of 3 microL of a solution of TR-FRET detection reagents (125 nanomol/L streptavidine-XL665 [Cisbio Bioassays, Codolet, France] and 0.67 nanomol/L anti-Phospho-c-Myc (Ser 62) (E1J4K)-antibody from Cell Signalling [#13748] and 2 nanomol/L LANCE EU-W1024 labeled anti-rabbit IgG antibody [Perkin-Elmer, product no. 0083]) in an aqueous EDTA-solution (133 millimol/L EDTA, 0.27% (w/v) bovine serum albumin in 66.7 millimol/L HEPES pH 7.5).
The resulting mixture was incubated 1 h at 22° C. to allow the formation of complex between the phosphorylated biotinylated peptide and the detection reagents. Subsequently the amount of phosphorylated substrate was evaluated by measurement of the resonance energy transfer from the Eu-chelate to the streptavidine-XL. Therefore, the fluorescence emissions at 620 nm and 665 nm after excitation at 350 nm was measured in a TR-FRET reader, e.g. a Pherastar FS (BMG Labtechnologies, Offenburg, Germany) or a Viewlux (Perkin-Elmer). The ratio of the emissions at 665 nm and at […] was taken as the measure for the amount of phosphorylated substrate. The data were normalised (enzyme reaction without inhibitor=0% inhibition, all other assay components but no enzyme=100% inhibition).

MDA-MB-231-CDK12d-res = test: Proliferation assay CDK12 degrader resistant MDA-MB-231; assay type: cell-based, human; conditions: for IC50: Homo sapiens, 96 h, CDK12 degrader resistant MDA-MB-231 cells, 4 days, median, read-out: Prolif-MDA MB-231-CDK12d-res, IC50 - [mol/] (median); for Ratio (Prolif-MDA MB-231-CDK12d-res IC50 / Prolif-MDA MB-231 IC50): resistant versus parental MDA-MB-231 cells
Excerpt: (§1) CDK12-degrader resistant cells were generated by propagation of CAL-120 human breast adenocarcinoma cells (DSMZ ACC-459) and MDA-MB-231 human breast cancer cells (ATCC HTB-26) in presence of increasing concentrations of the CDK12 degrader compound example 4 from WO 2021/116178. Initial concentrations of example 4 were 2.0E-08 M for CAL-120 cells and 4.6E-08 M for MDA-MB-231 cells, corresponding to ca. 2-fold the IC50 of inhibition of the cells in an proliferation assay. After the treated cells recovered and proliferated again the concentration of compound example 4 was increased to 3-fold IC50.
(§2) To determine the inhibitory effect of test compounds on proliferation of CAL-120-CDK12d-res, MDA-MB-231-CDK12d-res the cells were plated at a density of 4,000 cells/well in a 96-well multitier plate in 200 microL of their respective growth medium supplemented 10% fetal calf serum. After 24 hours, the cells of one plate (zero-point plate) were stained with crystal violet (see below), while the medium of the other plates was supplemented with the test substances in various concentrations (0 micromol/L, as well as in the range of 0.01-10 micromol/L; the final concentration of the solvent dimethyl sulfoxide was adjusted to 0.1%) using a Tecan HP D300 Digital Dispenser. The cells were incubated for 4 days in the presence of test substances. Cell proliferation was determined by staining the cells with crystal violet: the cells were fixed by adding 20 microL/measuring point of an 11% glutaric aldehyde solution for 15 minutes at room temperature. After three washing cycles of the fixed cells with water, the plates were dried at room temperature. The cells were stained by adding 100 microL/measuring point of a 0.1% crystal violet solution (pH 3.0). After three washing cycles of the stained cells with water, the plates were dried at room temperature. The dye was dissolved by adding 100 microL/measuring point of a 10% acetic acid solution. The extinction was determined by photometry at a wavelength of 595 nm. The change of cell number, in percent, was calculated by normalization of the measured values to the extinction values of the zero-point plate (=0%) and the extinction of the untreated (0 μM) cells (=100%). The IC50 values (inhibitory concentration at 50% of maximal effect) were determined by means of a 4 parameter fit.

CAL-120-CDK12d-res = test: Proliferation assay CDK12 degrader resistant CAL-120; assay type: cell-based, human; conditions: for IC50: Homo sapiens, 96 h, CDK12 degrader resistant CAL-120 cells, 4 days, median, read-out: Prolif-CAL-120-CDK12d-res, IC50 - [mol/l] (median); for Ratio (Prolif-CAL-120-CDK12d-res IC50 / Prolif-CAL-120 IC50): resistant versus parental CAL-120 cells
Excerpt: as §1, §2

Sequence of CDK12/CyclinK (Q9NYV4 other isoform, or with tags, fused parts or gaps): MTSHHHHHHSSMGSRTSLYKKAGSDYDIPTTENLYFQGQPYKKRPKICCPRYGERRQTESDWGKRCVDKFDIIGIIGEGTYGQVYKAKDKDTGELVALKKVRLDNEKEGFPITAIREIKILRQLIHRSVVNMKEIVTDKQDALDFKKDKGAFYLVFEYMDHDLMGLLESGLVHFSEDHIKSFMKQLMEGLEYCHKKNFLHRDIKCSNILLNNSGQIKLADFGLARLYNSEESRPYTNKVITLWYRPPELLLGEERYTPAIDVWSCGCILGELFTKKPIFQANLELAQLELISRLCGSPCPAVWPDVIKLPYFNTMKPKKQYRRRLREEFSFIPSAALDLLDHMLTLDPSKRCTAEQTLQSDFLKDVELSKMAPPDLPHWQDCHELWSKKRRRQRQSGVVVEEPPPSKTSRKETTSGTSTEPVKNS
Sequence of CDK12/CyclinK (O75909 other isoform, or with tags, fused parts or gaps partner): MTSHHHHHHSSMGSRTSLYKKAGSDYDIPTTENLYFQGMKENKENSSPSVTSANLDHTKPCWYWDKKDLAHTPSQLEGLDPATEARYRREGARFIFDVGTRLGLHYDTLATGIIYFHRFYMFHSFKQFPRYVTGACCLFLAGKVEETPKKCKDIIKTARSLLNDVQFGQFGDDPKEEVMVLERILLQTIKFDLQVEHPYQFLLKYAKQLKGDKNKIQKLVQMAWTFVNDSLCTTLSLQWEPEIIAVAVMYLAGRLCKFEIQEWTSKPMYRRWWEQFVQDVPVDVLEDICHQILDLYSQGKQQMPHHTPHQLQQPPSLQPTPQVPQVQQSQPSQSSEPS

IC50 (CDK12/CyclinK) [nM]	(IC50 CDK12 high ATP) to (Degradation DC50 CDK12) ratio (CDK12/CyclinK)	IC50 (MDA-MB-231-CDK12d-res) [nM]	SMILES	Ratio (Prolif-MDA MB-231-CDK12d-res IC50 / Prolif-MDA MB-231 IC50) (MDA-MB-231-CDK12d-res)	IC50 (CAL-120-CDK12d-res) [nM]	Ratio (Prolif-CAL-120-CDK12d-res IC50 / Prolif-CAL-120 IC50) (CAL-120-CDK12d-res)
1830	0.77	–	FC(F)(F)c1ccc(-c2nnc(CNc3nc(N4CCOCC4)nc4c(Br)cnn34)[nH]2)cc1 [Example 1, 8-bromo-2-(morpholin-4-yl)-N-({5-[4-(trifluoromethyl)phenyl]-4H-1,2,4-triazol-3-yl}methyl)pyrazolo[1,5-a][1,3,5]triazin-4-amine]	–	–	–
750	<0.27	–	FC(F)(F)Oc1ccc(-c2nnc(CNc3nc(N4CCOCC4)nc4c(Br)cnn34)[nH]2)cc1 [Example 2, 8-bromo-2-(morpholin-4-yl)-N-({5-[4-(trifluoromethoxy)phenyl]-4H-1,2,4-triazol-3-yl}methyl)pyrazolo[1,5-a][1,3,5]triazin-4-amine]	–	–	–
267	<0.09	–	FC(F)(F)c1ccc(-c2cnc(CNc3nc(N4CCOCC4)nc4c(Br)cnn34)[nH]2)cc1 [Example 3, 8-bromo-2-(morpholin-4-yl)-N-({5-[4-(trifluoromethyl)phenyl]-1H-imidazol-2-yl}methyl)pyrazolo[1,5-a][1,3,5]triazin-4-amine]	–	–	–
34.8	<0.03	–	FC(F)(F)Oc1ccc(-c2cnc(CNc3nc(N4CCOCC4)nc4c(Br)cnn34)[nH]2)cc1 [Example 4, 8-bromo-2-(morpholin-4-yl)-N-({5-[4-(trifluoromethoxy)phenyl]-1H-imidazol-2-yl}methyl)pyrazolo[1,5-a][1,3,5]triazin-4-amine]	–	–	–
262	0.26	–	FC(F)(F)Oc1ccc(-c2nnc(CNc3nc(N4CCOCC4)nc4c(C(F)(F)F)cnn34)[nH]2)cc1 [Example 5, 2-(morpholin-4-yl)-N-({5-[4-(trifluoromethoxy)phenyl]-4H-1,2,4-triazol-3-yl}methyl)-8-(trifluoromethyl)pyrazolo[1,5-a][1,3,5]triazin-4-amine]	–	–	–
736	0.74	–	FC(F)(F)c1ccc(-c2nnc(CNc3nc(N4CCOCC4)nc4c(C(F)(F)F)cnn34)[nH]2)cc1 [Example 6, 2-(morpholin-4-yl)-8-(trifluoromethyl)-N-({5-[4-(trifluoromethyl)phenyl]-4H-1,2,4-triazol-3-yl}methyl)pyrazolo[1,5-a][1,3,5]triazin-4-amine]	–	–	–
26.3	0.04	156	FC(F)(F)c1ccc(-c2cnc(CNc3nc(N4CCOCC4)nn4c(C(F)(F)F)cnc34)[nH]2)cc1 [Example 7, 2-(morpholin-4-yl)-7-(trifluoromethyl)-N-({5-[4-(trifluoromethyl)phenyl]-1H-imidazol-2-yl}methyl)imidazo[2,1-f][1,2,4]triazin-4-amine]	1.7	112	1.1
32.3	0.04	–	FC(F)(F)c1ccc(-c2nnc(CNc3nc(N4CCOCC4)nn4c(C(F)(F)F)cnc34)[nH]2)cc1 [Example 11, 2-(morpholin-4-yl)-7-(trifluoromethyl)-N-({5-[4-(trifluoromethyl)phenyl]-4H-1,2,4-triazol-3-yl}methyl)imidazo[2,1-f][1,2,4]triazin-4-amine]	–	–	–
526	<0.53	–	COc1ccc(-c2nnc(CNc3nc(N4CCOCC4)nc4c(C(F)(F)F)cnn34)[nH]2)cn1 [Example 15, N-{[5-(6-methoxypyridin-3-yl)-4H-1,2,4-triazol-3-yl]methyl}-2-(morpholin-4-yl)-8-(trifluoromethyl)pyrazolo[1,5-a][1,3,5]triazin-4-amine]	–	–	–
–	–	288	COc1ccc(-c2nnc(CNc3nc(N4CCOCC4)nn4c(C(F)(F)F)cnc34)[nH]2)cn1 [Example 18, N-{[5-(6-methoxypyridin-3-yl)-4H-1,2,4-triazol-3-yl]methyl}-2-(morpholin-4-yl)-7-(trifluoromethyl)imidazo[2,1-f][1,2,4]triazin-4-amine]	4.0	252	2.4
489	<0.49	–	Cc1ccc(-c2nnc(CNc3nc(N4CCOCC4)nc4c(C(F)(F)F)cnn34)[nH]2)cn1 [Example 22, N-{[5-(6-methylpyridin-3-yl)-4H-1,2,4-triazol-3-yl]methyl}-2-(morpholin-4-yl)-8-(trifluoromethyl)pyrazolo[1,5-a][1,3,5]triazin-4-amine]	–	–	–
160	<0.16	–	Cc1ccc(-c2nnc(CNc3nc(N4CCOCC4)nn4c(C(F)(F)F)cnc34)[nH]2)cn1 [Example 23, N-{[5-(6-methylpyridin-3-yl)-4H-1,2,4-triazol-3-yl]methyl}-2-(morpholin-4-yl)-7-(trifluoromethyl)imidazo[2,1-f][1,2,4]triazin-4-amine]	–	–	–
–	–	62.6	FC(F)(F)c1ccc(-c2cnc(CNc3nc(N4CCOCC4)nc4c(C(F)(F)F)cnn34)[nH]2)cn1 [Example 24, 2-(morpholin-4-yl)-8-(trifluoromethyl)-N-({5-[6-(trifluoromethyl)pyridin-3-yl]-1H-imidazol-2-yl}methyl)pyrazolo[1,5-a][1,3,5]triazin-4-amine]	2.9	40.7	1.3

From patent publication US20250066370A1, “BICYCLIC TRIAZINE DERIVATIVES FOR THE TREATMENT OF CANCER” (DEUTSCHES KREBSFORSCHUNGSZENTRUM, priority 2022, published 2025)
